PubChem BioAssay (NCI)
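Dose response: 5 concentrations. Exposure: 48 h. Format: 96-well plates. Endpoint: linear interpolation; highest concentration if not reached. TGI denotes the concentration required for complete inhibition of growth.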

Columns and labels:
Test in all cases: inhibition of tumour cell growth, NCI panel, 48 h
LOX IMVI melanoma = tested on: LOX IMVI melanoma
HOP-92 NSCLC = tested on: HOP-92 NSCLC
SK-MEL-28 melanoma = tested on: SK-MEL-28 melanoma
PC-3 prostate = tested on: PC-3 prostate
CAKI-1 renal = tested on: CAKI-1 renal
SF-539 CNS = tested on: SF-539 CNS
UACC-62 melanoma = tested on: UACC-62 melanoma
K-562 leukemia = tested on: K-562 leukemia
OVCAR-8 ovarian = tested on: OVCAR-8 ovarian
MDA-N = tested on: MDA-N

| Compound | TGI (LOX IMVI melanoma) [µM] | TGI (HOP-92 NSCLC) [µM] | TGI (SK-MEL-28 melanoma) [µM] | TGI (PC-3 prostate) [µM] | TGI (CAKI-1 renal) [µM] | TGI (SF-539 CNS) [µM] | TGI (UACC-62 melanoma) [µM] | TGI (K-562 leukemia) [µM] | TGI (OVCAR-8 ovarian) [µM] | TGI (MDA-N) [µM] |
| --- | --- | --- | --- | --- | --- | --- | --- | --- | --- | --- |
| CC(C)c1ccc(/C=C2/C=C(c3ccc4ccccc4c3)OC2=O)cc1 | > 100 | > 100 | > 100 | > 100 | > 100 | > 100 | > 100 | > 85.3 | > 100 | – |
| COc1ccc(CNc2nc(NCc3ccc(OC)c(OC)c3)nc(NC3CCCCC3)n2)cc1 | > 100 | > 100 | > 100 | > 100 | > 100 | 8.46 | > 100 | > 100 | > 100 | – |
| COC(=O)c1cc2c(n1S(=O)(=O)c1ccc(C)cc1)C(=O)C(=O)c1[nH]cc(C(=O)OCc3ccccc3)c1-2 | 0.176 | 0.725 | 0.226 | 1.13 | 1.28 | 0.311 | 0.138 | > 100 | 0.706 | – |
| N#CC1=C(N)N(c2ccccc2)C(c2ccco2)C1(C#N)C#N (stereo unspecified) | 31.1 | – | 38.9 | 60.5 | > 100 | 41.2 | 59.3 | 37.5 | 51.8 | > 100 |
| C[n+]1c2ccccc2c(/C=N\NS(=O)(=O)c2ccc(O)c(C(=O)O)c2)c2ccccc21 | > 100 | > 100 | > 100 | – | > 100 | > 100 | > 100 | > 100 | > 100 | – |
| Cc1cccc2c(=O)cc(-c3ccccc3)[nH]c12 | > 100 | – | > 100 | – | – | 37.1 | > 100 | > 100 | – | – |
| Cc1cc(N(CCC#N)CCC#N)ccc1/C(N=Nc1ccc(Cl)cc1)=N\NC(=O)c1ccccc1 | – | – | – | > 100 | > 100 | 50.8 | > 100 | > 100 | > 100 | 74.2 |
| CC(C)CCCCCCCCCCCCC(=O)NCC(=O)NC1C(C)OC(Nc2ncnc3c2ncn3C)C(O)C1O (stereo unspecified) | > 100 | 8.41 | > 100 | – | 5.6 | 13.1 | > 100 | > 100 | > 100 | – |
| O=C1CCC23CC(C=CC=C12)n1c(=O)n(-c2ccccc2)c(=O)n13 (stereo unspecified) | > 100 | > 100 | > 100 | – | > 83.4 | > 100 | > 100 | > 100 | > 100 | – |
| CCOC(=O)c1c2ccccc2n2c(N)c(C(N)=O)nnc12 | > 100 | – | > 100 | > 100 | > 100 | 49.8 | 81.1 | > 100 | 55 | > 100 |
| Cc1cn(C2CC(n3cc(Cn4cc(I)c(=O)[nH]c4=O)nn3)C(CO)O2)c(=O)[nH]c1=O (stereo unspecified) | – | > 100 | > 100 | > 100 | > 100 | > 100 | > 100 | – | > 100 | > 100 |
| COc1ccc(N2C(=O)C3c4[nH]c5ccccc5c4C4CCC(C(C)(C)C)CC4C3C2=O)c(C)c1 (stereo unspecified) | – | – | > 100 | > 100 | > 100 | > 100 | > 100 | > 100 | > 100 | > 100 |
| CC(=O)O[C@H]1C(=O)[C@]2(C)[C@@H](OC(=O)OCCC(O)CO)C[C@H]3OC[C@@]3(OC(C)=O)[C@H]2[C@H](OC(=O)c2ccccc2)[C@]2(O)C[C@H](OC(=O)[C@H](O)[C@@H](NC(=O)c3ccccc3)c3ccccc3)C(C)=C1C2(C)C (stereo partly specified) | 20.4 | 25.2 | – | > 36.2 | > 42.3 | 0.0297 | 24.8 | > 100 | – | < 0.01 |
| CC(=O)NC1=C(NCCC(C)C)C(=O)c2ccccc2C1=O | > 50 | > 50 | > 50 | – | – | > 50 | > 50 | > 50 | > 50 | – |
| COc1cc([C@@H]2OCC3C(c4ccc5c(c4)OCO5)OCC32)cc(OC)c1OC (stereo partly specified) | > 100 | 60.9 | > 100 | – | > 100 | > 100 | – | > 100 | > 100 | – |
| O=C(Nc1ccc(C2=NCCN2)cc1)c1cncc(C(=O)Nc2ccc(C3=NCCN3)cc2)c1 | > 100 | > 100 | > 31.6 | – | > 100 | > 100 | > 100 | > 100 | > 100 | – |
| C(/c1ccco1)=c1/nc(-c2ccccc2)n2c1nc1ccccc12 | > 100 | > 100 | – | 9.43 | 72.2 | > 100 | > 100 | 68.3 | > 100 | 54.4 |
| C[C@]12CC[C@H](O)CC1=CC[C@@H]1C2CC[C@]2(C)C(=O)N(N)C(=O)CC12 (stereo partly specified) | > 100 | > 100 | > 100 | – | > 100 | > 100 | > 100 | > 100 | > 100 | – |
| O=c1[nH]cc(N=Cc2cc(Cl)cc(Cl)c2O)c(=O)[nH]1 | – | 89 | 54.5 | 98.3 | 57.7 | 43.6 | 61.5 | > 100 | > 100 | 93.1 |
| CCCN=C1CCN(Cc2ccccc2)c2ccccc2N1 | – | – | 29.3 | 59.9 | 63.9 | – | 26.2 | 19.4 | 32.6 | > 100 |
| Cc1cn(C2CC(N(O)C(N)=O)C(CO)O2)c(=O)[nH]c1=O (stereo unspecified) | – | > 100 | > 100 | > 100 | > 100 | > 100 | > 100 | > 100 | > 100 | > 100 |
| COC(=O)[C@H](Cc1c[nH]c2ccccc12)NP(=O)(O)OCC1C=CC(n2cc(C)c(=O)[nH]c2=O)O1 (stereo partly specified) | > 100 | > 100 | > 100 | > 100 | > 100 | – | > 100 | > 100 | > 100 | > 100 |
| O=C1CCC(=O)N1n1c(Cc2ccccc2)n[nH]c1=O | > 100 | – | > 100 | > 100 | > 100 | – | > 100 | > 100 | > 100 | > 100 |
